Measurements from patent US20230405003A1, “APPLICATION OF THYMIDINE DERIVATIVE IN PREPARATION OF DRUGS” (ONQUALITY PHARMACEUTICALS CHINA LTD., priority 2020, published 2023).
Read-outs that look alike come from different tables or passages of the source.

Experiments:
blood cells = assay: Blood cell count after 5-FU diarrhea experiment in mice; format: in vivo, mouse; conditions: orbital blood after 5-FU 70 mg/kg/d i.p. three days
Excerpt: After completion of the experiments, the mice in the 5-FU control group and the experimental group were subject to blood collection at orbital. Blood cells were counted.

HaCaT cells = assay: Relief of 5-FU proliferative toxicity to HaCaT cells (CCK-8 cell survival); format: cell-based; conditions: for Cell Survival Rate (increased percentage of cell survival compared with the Group of 5-FU): 5-Fu 20 μM, HaCaT cells
In short: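 HaCaT keratinocytes (5000–10000/well) cultured 24 h, then exposed 48 h to 5-FU alone or with thymidine derivative, or thymidine plus uridine derivative mix, versus solvent-matched blanks. Survival by CCK-8; value is % increase in survival over 5-FU alone, t-test.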

[1] = test system: pain in capecitabine hand-foot syndrome rats; assay: Pain of hand-foot syndrome, mechanical sensitivity in rats (von Frey); format: in vivo, rat; conditions: capecitabine 4000 mg/kg hand-foot syndrome rats; thymidine derivative 3%
Procedure: According to the method of Examples 91-115, after administration of a thymidine derivative (at a concentration of 3%) and co-administration of a thymidine derivative (at a concentration of 1%) with a uridine derivative (at a concentration of 3%) to rat hand-foot syndrome models constructed from 4000 mg/kg of capecitabine for a period of time, pain analysis was performed on the rats, and the pain assessment model was mechanical sensitivity in rats (von Frey). The experimental steps were as follows: first, the rats were allowed to adapt in the room for 1 hour, then the rats were placed in an observation box with a metal mesh floor, and the mice were allowed to stay in the box for 20 minutes to adapt to the experimental platform. Next, a von Frey device was used to detect paw pain by stimulating the surface of the rat's palm with specially designed cilia to detect the mechanical sensitivity of the animal at strength of 0.4 g, 0.8 g, 1.5 g, 2.5 g, 4 g, 8 g, 10 g and 20 g (IITC Life Science, Woodland Hills, 2390 series). […] The rat movement response was considered to be a vague response, in which case the stimulation experiment was repeated.

[2] = test system: hand-foot syndrome caused by capecitabine in SD rats; assay: Rat model of hand-foot syndrome caused by capecitabine, gel application; format: in vivo; conditions: capecitabine 4000 mg/kg once daily, 40 days; for inhibition in vivo at 3 % / inhibition in vivo at 5 %: Rattus norvegicus, topical, 960 h; for inhibition in vivo at 3 % / Control Rate Forepaws / Control Rate Hindpaws / inhibition in vivo at 5 %: rats; for inhibition in vivo at 5 %: gel 5 wt%
Procedure: A rat animal model was established. 6-week aged female SD rats were administered with capecitabine by daily gavage. The degree of hand-foot syndrome in paws is similar, and there was no difference between the left and right paws. Similar to the human body, rats developed hand-foot syndrome after oral administration of capecitabine. The causes of the two are the same, and the disorder is also very similar. Therefore, rats are very good animal models for simulating the hand-foot syndrome caused by capecitabine.
(§1) After SD rats were fed and adapted for one week (about 200 g), the rats were divided into groups, with 10 rats in each group. Then, the rats were subject to gavage administration. Capecitabine was dissolved in a 1:1 mixed solution of castor oil and ethanol and diluted for three times with PBS buffer. After gavage, the rats were fixed with a fixed cylinder, and a gel of thymidine derivative (or a compounded gel of thymidine derivative and uridine derivative) was applied to double hind paws (about 1 cm*3 cm) of the rats in group of administration (the types and concentrations are shown in Table 4), and a blank gel was applied to the group of blank (as a blank control). After approximately 4 hours of application, the rats were released after 4 hours, wiped with clean water to remove any residual drug at the application site, and allowed back to the cage. The thymidine derivative gel (or the compounded gel of thymidine derivative and uridine derivative) was administered with gavage every day. The gavage and application tests are repeated daily until the group of blank has developed obvious hand-foot syndrome.
Table 4 lists the combinations of animal experiments of capecitabine and the thymidine derivative gel (or the compounded gel of thymidine derivative and uridine derivative) and the corresponding experimental results (wherein, the data in the column of control rate=the occurrence rate of hand-foot syndrome in group of blank—the occurrence rate of hand-foot syndrome in group of administration). […]

[3] = test system: hand-foot syndrome caused by Cytarabine in rats; assay: Rat model of hand-foot syndrome caused by cytarabine, gel application; format: in vivo; conditions: Cytarabine 120 mg/kg twice per day, gel 3 wt%, 30 days
Procedure: as §1
(§2) The effects of thymidine derivative or a combination of thymidine derivative and uridine derivative on the chemotherapeutic drug-induced hand-foot syndrome in a rat model were tested according to the method in Examples 30-40. At the same time, paws of rats after treatment with the drug were taken and observed for their inflammation by hematoxylin-eosin staining (HE) and immunohistochemical staining (IHC).
(§3) The test thymidine derivative or the combination of thymidine derivative and uridine derivative, as well as the final concentration of the test compounds were shown in Table 8. Table 8 lists the animal experiment combination of a chemotherapeutical drug and the thymidine derivative gel (or the compound gel of thymidine derivative and uridine derivative) and the corresponding experimental results (wherein, the data in the column of control rate=the occurrence rate of hand-foot syndrome in Group of blank—the occurrence rate of hand-foot syndrome in Group of administration).

[4] = test system: hand-foot syndrome caused by Acelarin (NUC-1031) in rats; assay: Rat model of hand-foot syndrome caused by Acelarin (NUC-1031), gel application; format: in vivo; conditions: Acelarin (NUC-1031) 130 mg/kg intraperitoneal injection twice a week, gel 3 wt%, 30 days
Procedure: as §1, §2, §3

[5] = test system: hand-foot syndrome caused by Doxorubicin in rats; assay: Rat model of hand-foot syndrome caused by doxorubicin, gel application; format: in vivo; conditions: Doxorubicin 7 mg/kg tail intravenous injection once every three days for 20 days, gel 3 wt%, 30 days
Procedure: as §1, §2, §3

[6] = test system: human colon cancer cell HCT116 xenograft; assay: Effect of thymidine derivative gel on therapeutical effect of capecitabine, HCT116 xenograft nude mice; format: in vivo, mouse; conditions: oral capecitabine 1.5 mmol/kg, 14 days
Procedure: A BALB/C nude mouse (human colon cancer cell HCT116 xenograft) model was established. After the model was stable, the model mice were divided into four groups (in which the average tumor size of each of the 4 groups was kept as consistent as possible). Except the blank group (containing 5 mice), there were 10 mice in each group, which were subject to gavage and application experiments.
Capecitabine was dissolved in a mixed solution of castor oil:ethanol=1:1 (volume ratio). Prior to gavage, the mixture was diluted with PBS to the desired concentration (diluted for about 3 times with PBS solution). […]
A: Group of blank: 5 mice with tumors, no gavage and no drug application; B: blank group: 10 mice with tumors, oral gavage with capecitabine (1.5 mmol/kg), application with blank gel on the back (once per day for 14 days); C: 0.5% T1 group: 10 mice with tumors, oral gavage of capecitabine, application with 0.5% T1 gel (administration method and frequency are the same as those in group B); D: 2% T1 gel group: 10 mice with tumors, oral gavage of capecitabine, application of 2% T1 gel (administration method and frequency are the same as those in group B). […] The tumor size was measured and recorded every 2 days. After 14 days of the experiment, the mice were dissected to take out the tumor, which was weighed and recorded.

[7] = gel 3 wt%, read-out: Control Rate Forepaws
[8] = gel 3 wt%, read-out: Control Rate Hindpaws
[9] = selected compound final concentration 12.5 μM
[10] = selected compound final concentration 25 μM
[11] = selected compound final concentration 50 μM

O=c1[nH]cc(F)c(=O)[nH]1 [5-FU, fluorouracil (5-FU)]
blood cells (blood cells): can reduce all the blood cells that could be detected

Cc1cn([C@H]2C[C@H](O)[C@@H](COC(=O)C(C)(C)C)O2)c(=O)[nH]c1=O [T4]
activation at 1 µM (HaCaT cells; Homo sapiens, HaCaT, increase vs Group of 5-FU, 5-FU 20 μM, compound 1 μM, 48 h, read-out: Cell Survival Rate): 20 to 36%
activation at 10 µM (HaCaT cells; Homo sapiens, HaCaT, increase vs Group of 5-FU, 5-FU 20 μM, compound 10 μM, 48 h, read-out: Cell Survival Rate): 65 to 72%
activation at 100 µM (HaCaT cells; Homo sapiens, HaCaT, increase vs Group of 5-FU, 5-FU 20 μM, compound 100 μM, 48 h, read-out: Cell Survival Rate): 80 to 90%
activation at 500 µM (HaCaT cells; Homo sapiens, HaCaT, increase vs Group of 5-FU, 5-FU 20 μM, compound 500 μM, 48 h, read-out: Cell Survival Rate): 70 to 77%
activation at 1000 µM (HaCaT cells; Homo sapiens, HaCaT, increase vs Group of 5-FU, 5-FU 20 μM, compound 1000 μM, 48 h, read-out: Cell Survival Rate): 2 to 7%
pain in rats (von Frey mechanical sensitivity) [1]: did not significantly improve pain in rats
inhibition in vivo at 3 % [2, 7]: 28.6%
inhibition in vivo at 3 % [2, 8]: 42.9%
Control Rate ([2]; SD rats, gel 2 wt% on hind paws): 32.86%

CCC1(CC(C)=O)OCCc2c1[nH]c1c(CC(=O)OC[C@H]3O[C@@H](n4cc(C)c(=O)[nH]c4=O)C[C@@H]3O)cccc21 (stereo partly shown) [T26]
pain in rats (von Frey mechanical sensitivity) [1]: could significantly improve pain in rats
Control Rate Forepaws ([2]; gel 1 wt%): 22.22%
Control Rate Hindpaws ([2]; gel 1 wt%): 44.44%
Control Rate Forepaws ([2]; gel 3 wt%): 57.14%
Control Rate Hindpaws ([2]; gel 3 wt%): 71.43%

CC(=O)Oc1ccccc1C(=O)OC[C@H]1O[C@@H](n2cc(C)c(=O)[nH]c2=O)C[C@@H]1O [T37]
Cell Survival Rate (increased percentage of cell survival compared with the Group of 5-FU) (HaCaT cells; selected compound final concentration 0.8 μM): 36%-44%
Cell Survival Rate (increased percentage of cell survival compared with the Group of 5-FU) (HaCaT cells; selected compound final concentration 1.6 μM): 55%-62%
Cell Survival Rate (increased percentage of cell survival compared with the Group of 5-FU) (HaCaT cells; selected compound final concentration 3.13 μM): 61%-69%
Cell Survival Rate (increased percentage of cell survival compared with the Group of 5-FU) (HaCaT cells; selected compound final concentration 6.25 μM): 68%-76%
Cell Survival Rate (increased percentage of cell survival compared with the Group of 5-FU) (HaCaT cells; [9]): 52%-60%
Cell Survival Rate (increased percentage of cell survival compared with the Group of 5-FU) (HaCaT cells; [10]): 49%-57%
Cell Survival Rate (increased percentage of cell survival compared with the Group of 5-FU) (HaCaT cells; [11]): 52%-59%
pain in rats (von Frey mechanical sensitivity) [1]: could significantly improve pain in rats
Control Rate Forepaws [3]: 22.22%
Control Rate Hindpaws [3]: 44.44%
Control Rate Forepaws [4]: 42.86%
Control Rate Hindpaws [4]: 71.43%
inhibition in vivo at 3 % [2, 7]: 28.6%
inhibition in vivo at 3 % [2, 8]: 42.9%

COc1ccc2cc([C@@H](C)C(=O)OC[C@H]3O[C@@H](n4cc(C)c(=O)[nH]c4=O)C[C@@H]3O)ccc2c1 [T41]
Control Rate Forepaws [5]: 57.14%
Control Rate Hindpaws [5]: 42.86%
Cell Survival Rate (increased percentage of cell survival compared with the Group of 5-FU) (HaCaT cells; [9]): 39%-46%
Cell Survival Rate (increased percentage of cell survival compared with the Group of 5-FU) (HaCaT cells; [10]): 47%-55%
Cell Survival Rate (increased percentage of cell survival compared with the Group of 5-FU) (HaCaT cells; [11]): 44%-51%
pain in rats (von Frey mechanical sensitivity) [1]: could significantly improve pain in rats
inhibition in vivo at 3 % [2, 7]: 50%
inhibition in vivo at 3 % [2, 8]: 62.5%
inhibition in vivo at 5 % ([2]; read-out: Control Rate Forepaws): 50%
inhibition in vivo at 5 % ([2]; read-out: Control Rate Hindpaws): 75%

CCCCCOC(=O)Nc1nc(=O)n([C@@H]2O[C@H](C)[C@@H](O)[C@H]2O)cc1F [capecitabine, reference compound]
volume of tumor tissue versus group without capecitabine gavage [6]: significantly smaller than that in Group A
